Measurements taken from publication PMC6017357, “In Vitro Inhibitory Effects of Synthetic Cannabinoid EAM-2201 on Cytochrome P450 and UDP-Glucuronosyltransferase Enzyme Activities in Human Liver Microsomes” (Molecules : A Journal of Synthetic Chemistry and Natural …, 2018).

Target: T1, UGT1A3 (Homo sapiens, UniProt P35503)
T1 sequence (P35503 29-534): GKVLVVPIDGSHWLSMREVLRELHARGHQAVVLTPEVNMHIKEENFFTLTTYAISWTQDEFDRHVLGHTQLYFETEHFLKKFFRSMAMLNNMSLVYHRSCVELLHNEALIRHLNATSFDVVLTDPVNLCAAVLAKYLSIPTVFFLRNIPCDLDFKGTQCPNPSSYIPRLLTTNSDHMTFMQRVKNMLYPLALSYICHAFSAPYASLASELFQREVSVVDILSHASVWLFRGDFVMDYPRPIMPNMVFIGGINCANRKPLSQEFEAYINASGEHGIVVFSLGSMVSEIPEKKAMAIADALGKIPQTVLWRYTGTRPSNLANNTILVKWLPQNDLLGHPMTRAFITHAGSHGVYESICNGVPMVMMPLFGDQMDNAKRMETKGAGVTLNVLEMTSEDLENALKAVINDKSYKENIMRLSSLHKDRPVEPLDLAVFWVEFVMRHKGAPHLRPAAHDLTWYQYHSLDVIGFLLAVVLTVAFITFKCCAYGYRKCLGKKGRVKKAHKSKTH
Assay: UGT1A3-catalyzed chenodeoxycholic acid 24-acyl-glucuronidation in human liver microsomes
Format: in vitro ADME
Set-up: from tissue; host or cells: ultrapooled human liver microsomes
Protocol: The inhibitory effects of EAM-2201 on UGT1A1, UGT1A3, UGT1A4, UGT1A6, UGT1A9 and UGT2B7 were evaluated using LC-MS/MS and the cocktail of UGT substrates as previously described. […] Supernatant from sets A and B (50 µL of each) was mixed and aliquots (5 µL) were analyzed by LC-MS/MS. […]
Reactions were initiated by adding UDPGA at 37 °C and stopped after 60 min by adding 100 µL ice-cold methanol containing propofol glucuronide (internal standard). […] Aliquots (5 µL) of the diluted supernatants were analyzed using LC-MS/MS.
The metabolites formed from the six UGT cocktail substrates were simultaneously measured using LC-MS/MS [41]. […] Each metabolite was quantified via SRM in the negative ion mode: chenodeoxycholic acid 24-acyl-β-glucuronide, 567.2 > 391.0; mycophenolic acid glucuronide, 495.2 > 318.9; and propofol glucuronide (IS), 353.3 > 177.1; and in the positive ion mode: SN-38 glucuronide, 569.0 > 393.0; trifluoperazine glucuronide, 584.2 > 408.1; N-acetylserotonin-β-D-glucuronide, 395.2 > 219.0; naloxone 3-β-D-glucuronide, 504.0 > 310.0; and meloxicam (IS), 352.0 > 115.1. […]

In the case of CCc1ccc(C(=O)c2cn(CCCCCF)c3ccccc23)c2ccccc12 [EAM-2201, (4-ethyl-1-naphthalenyl)[1-(5-fluoropentyl)-1H-indol-3-yl]-methanone], the IC50 is reported as 11.7 µM and the Ki is reported as 2.4 µM.
